Experimental data from patent publication US7064112B1, “Pharmaceutical compositions comprising an adenosine receptor agonist or antagonist” (Can-Fite Biopharma Ltd., priority 1999, dated 2006).

Experiments:
[1] = tested on: Nb2-11C rat lymphoma cells; assay: Nb2-11C lymphoma cell growth, cell count assay; type: cell-based; settings: for growth inhibition of Nb2-11C lymphoma cells by receptor agonists: 0.01 μM agonist, 48 hours, FIG. 5A; for effect of receptor antagonist on the effect of adenosine on proliferation of Nb2-11C cells: 0.1 μM antagonist in combination with adenosine 25 μM, FIG. 5B
Protocol: Nb2-11C rat lymphoma cells (1.2×10^4 cells/ml) were incubated for 48 hours in 96 well microtiter plates with 1 ml RPMI medium containing 5% fetal bovine serum. Either 25 μM adenosine, 0.01 μM of an adenosine receptor agonists (CPA, an A1RAg; DPMA, an A2RAg or IB-MECA, an A3RAg) or 0.1 μM of an adenosine receptor antagonists (DPCPX, an A1RAn; DMPX, an A2RAn; or MRS-1220, an A3RAn) in combination with adenosine (25 μM) was added.
Cultures containing cells suspended in RPMI medium with 5% FBS served as controls for the above detailed experiment. Extent of cell proliferation was measured by a cell count assay.
Briefly, Nb2-11C lymphoma or bone marrow cells were incubated in the presence of either adenosine, or IB-MECA.

[2] = tested on: peripheral blood leukocytes and neutrophils; settings: for total white blood cell count after cyclophosphamide: i.p. adenosine 25 μg/kg or IB-MECA 3 or 6 μg/kg at 48 and 72 hours, FIG. 10A
Protocol: A further experiment was conducted in order to evaluate the chemoprotective effect of A3RAg. Mice were treated with cyclophosphamide (50 mg/kg body weight in 0.3 ml PBS). After 48 and 72 hours from administration of the cytotoxic drug, the mice were injected i.p. with adenosine (25 μg/kg body weight) or with IB-MECA (3 or 6 μg/kg body weight in 0.2 ml PBS). The number of white blood cells (WBC) and neutrophils was tested.

bone marrow cells = assay: Bone marrow cell proliferation, [3H]-thymidine incorporation assay; type: cell-based, C57BL/6J or ICR mice; settings: for reduction of the increase in bone marrow cell proliferation as compared to adenosine alone: antagonist in combination with adenosine
Protocol: Bone marrow cells derived from the femur of C57BL/6J mice were used. The cells were prepared as previously described.
For this purpose, bone marrow cells obtained from the femur of C57BL/6J or ICR mice were first disaggregated by passing through a 25 G needle. Then, the cells (3×10^5 cells/well, in 96 microtiter plates) were incubated with RPMI medium containing 10% fetal bovine serum (FBS) in the presence of adenosine (25 μM). Adenosine or agonists to the A1 and A3 adenosine receptors—CPA (an A1RAg, 0.01 μM), CCPA (an A1RAg, 0.01 μM), or IB-MECA (an A3RAg, 0.01 μM), were added to the bone marrow cultures in the absence of adenosine; an A1 adenosine receptor antagonist, DPCPX (0.1 μM), was added to a bone marrow culture in the presence of adenosine (25 μM).
Cultures containing cells suspended in RPMI medium and 5% FBS served as the control for the above detailed experiment.
[^3H]-Thymidine incorporation assay was used to evaluate the proliferation of the bone marrow cells. For this purpose, after 30 hours of incubation, each well was pulsed with 1 μCi [^3H]-Thymidine. After a total of 48 hours of incubation, the cells were harvested and the [^3H]-Thymidine uptake was determined in an LKB liquid scintillation counter (LKB, Piscataway, N.J., USA).
Cell proliferation was evaluated as described above.
The cumulative effect on the proliferation of bone marrow cells, when using a combination of an A1RAgm1 A3RAg, (CPA and IB-MECA) was evaluated. Cells, after being disaggregated, were incubated in the presence of either adenosine (25 μM), CPA (0.01 μM), IB-MECA (0.01 μM) or a combination of IB-MECA and CPA (each in a concentration of 0.01 μM) and further treated as described above.
In order to compare the effect of adenosine receptor antagonist on the proliferation of bone marrow cells, following the same methodology described above, cells were incubated with adenosine alone or in combination with either DMPX (an A2RAn), DPCPX (an A1RAn), MRS-1220 (an A3RAn) or with a combination of DPCPX and MRS-1220.
Cells pre-treated as described above, were incubated at different concentrations of IB-MECA (1 μM, 0.1 μM or 0.01 μM).
Bone marrow cells (3×10^6 cell/ml) were incubated in wells of 96 microtiter plates. […] Cell proliferation was measured by [^3H]-thymidine incorporation assay.
B-16 melanoma cells (5×10^5 cells/ml) and bone marrow cells (3×10^6 cells/ml) were incubated in wells of 96 microtiter plate. […] Cell proliferation was measured by the [^3H]-thymidine incorporation assay mentioned before.
Murine bone marrow cells were cultured as described above. […] The antagonist was added at a concentration of 10 nM.

B-16 melanoma cells = assay: B-16 melanoma cell proliferation, [3H]-thymidine incorporation assay; type: cell-based, Murine; settings: FIG. 18
Protocol: B-16 melanoma cells (5×10^5 cells/ml) and bone marrow cells (3×10^6 cells/ml) were incubated in wells of 96 microtiter plate. The culture consisted of RPMI medium supplemented with 10% FTS: […] Cell proliferation was measured by the [^3H]-thymidine incorporation assay mentioned before.

white blood cells (WBC) = settings: CYP 50 mg/kg i.p.; blood 124 hours after chemotherapy; FIG. 13
Protocol: Each group consisted of 10 mice and the experiment was repeated twice.
The CYP was injected intraperitoneally in 0.2 ml of PBS which served as the carrier.
Anti-G-CSF antibodies were intravenously injected (in 0.2 ml PBS) 72 hours following the administration of the chemotherapeutic drugs.
Blood samples were withdrawn 124 hours following chemotherapy. White blood cells (WBC) counts were made in a Coulter counter and differential cell counts were carried on smear preparations stained with May-Grundvald-Giemsa solution.

[3] = tested on: HCT-116 human colon cancer cells; assay: HCT-116 human colon carcinoma tumor growth in nude mice; type: in vivo; settings: for tumor growth (tumor size), combined therapy experiment: 5-FU 30 mg/kg i.p. 5 days, Cl-IB-MECA 5 μg/kg oral every other day, FIGS. 15 and 16
Protocol: Tumors were established by subcutaneous injection of 1×10^6 HCT-116 human colon cancer cells to nude mice (BALB/C origin) (Harlan, Jerusalem, Israel). […] Mice that were treated with the vehicle only (PBS). Each group consisted of 10 mice. Tumor growth rate was determined by measuring two orthogonal diameters of each tumor twice a week, and the tumor size was estimated according to the following formula: π/6[D1D2]. The results are depicted in FIG. 14. […] 1×10^6 HCT-116 cells were injected subcutaneously to nude mice. One day later, 5-FU (30 mg/kg body weight, in 0.2 ml PBS) was intraperitoneally injected and subsequently in 4 additional consecutive days. […] Mice that were treated either with the vehicle only (PBS) or with 5-FU served as control. Each group consisted of 10 mice. Tumor growth rate was determined by measuring two orthogonal diameters of each tumor twice a week, and the tumor size was estimated according to the following formula: π/6[D1D2].

[4] = Weight of nude mice treated with 5-FU and/or Cl-IB-MECA; type: in vivo, nude mice (BALB/C origin); settings: FIG. 11; for weight of the mice as compared to control: day 7, 10 and 14, 5-FU 30 mg/kg i.p. five days, or Cl-IB-MECA 6 μg/kg oral every second day, alone
[5] = tested on: white blood cells and bone marrow nucleated cells; assay: Doxorubicin-induced myelotoxicity in ICR mice; type: in vivo; settings: doxorubicin 10 mg/kg i.p., Cl-IB-MECA 6 μg/kg oral at 24, 48, 72 hours
Protocol: ICR mice were treated with doxorubicin (injection of 10 mg/kg i.p. in 0.5 ml PBS). […] At 72 hours, 96 hours, 120 hours and 144 hours, the mice were sacrificed and blood samples were withdrawn. In addition, bone marrow cells were aspirated from the femur of the mice and a cell count of nucleated cells from this aspirated preparation was made, following staining of the preparation with Coomassie Blue.

## COc1cc(OC)cc(C(CNc2ncnc3c2ncn3[C@@H]2O[C@H](CO)[C@@H](O)[C@H]2O)c2ccccc2C)c1 (stereo partly drawn) [DPMA, N^6-[2-(3,5-dimethoxyphenyl)-2-(2-methylphenyl)-ethyl] adenosine]
[1]
  growth inhibition of Nb2-11C lymphoma cells by receptor agonists: lower growth inhibition

## CNC(=O)[C@H]1O[C@@H](n2cnc3c(NCc4cccc(I)c4)ncnc32)[C@H](O)[C@@H]1O [IB-MECA, 1-deoxy-1-{6-[({3-iodophenyl}methyl)amino]-9H-purine-9-yl}-N-methyl-β-D-ribofuranuronamide]
[2]; cyclophosphamide 50 mg/kg, IB-MECA i.p. at 48 and 72 hours
  complete recovery of total white blood cell count after: 168 h
[2]; cyclophosphamide 50 mg/kg
  total white blood cell count after cyclophosphamide: restored
Bone marrow cells; 1 or 10 nM, FIG. 20
  effect on proliferation of bone marrow cells: dose dependent
Bone marrow cells; FIG. 7B
  effect on proliferation of bone marrow cells: stimulating the proliferation of bone marrow cells
Bone marrow cells; IB-MECA 1 μM, 0.1 μM or 0.01 μM
  stimulation of bone marrow cell proliferation: stimulates proliferation of bone marrow in a dose dependent manner
[1]
  growth inhibition of Nb2-11C lymphoma cells by receptor agonists: markedly inhibited
[1]; FIG. 7A
  effect on growth of tumor cells (Nb2-11C lymphoma): inhibiting the growth of tumor cells

## CCCOC(=O)c1c(-c2ccccc2)nc(CC)c(C(=O)SCC)c1CCC [MRS-1523, reference compound]
Bone marrow cells; with Cl-IB-MECA 0.01 μM or 0.1 μM, FIG. 18
  proliferation of bone marrow cells in the presence of MRS-1523: unchanged versus control
B-16 melanoma cells; with Cl-IB-MECA 0.01 μM or 0.1 μM
  proliferation of B-16 melanoma cells in the presence of MRS-1523: unchanged versus control

## C#CCn1c(=O)c2c(ncn2C)n(C)c1=O [DMPX, 3,7-dimethyl-1-propargyl-xantane, reference compound]
Bone marrow cells; compared to adenosine alone, FIG. 3B
  proliferation of bone marrow cells, adenosine in combination with receptor antagonist: increased proliferation of bone marrow cells which even exceeded that of adenosine alone
[1]
  effect of receptor antagonist on the effect of adenosine on proliferation of Nb2-11C cells: minor, however still significant effect

## Nc1ncnc2c1ncn2[C@@H]1O[C@H](CO)[C@@H](O)[C@H]1O [adenosine]
[2]; cyclophosphamide 50 mg/kg
  total white blood cell count after cyclophosphamide: restored

## OC[C@H]1O[C@@H](n2cnc3c(NC4CCCC4)ncnc32)[C@H](O)[C@@H]1O [CPA, N-cyclopentyladenosine]
[1]
  growth inhibition of Nb2-11C lymphoma cells by receptor agonists: No growth inhibition

## CCCn1c(=O)c2[nH]c(C3CCCC3)nc2n(CCC)c1=O [DPCPX, 1,3-dipropyl-8-cyclopentylxanthine, reference compound]
Bone marrow cells; FIG. 3B
  reduction of the increase in bone marrow cell proliferation as compared to adenosine alone: about 50%
[1]
  effect of receptor antagonist on the effect of adenosine on proliferation of Nb2-11C cells: essentially no effect

## O=P1(N(CCCl)CCCl)NCCCO1 (stereo not drawn) [cyclophosphamide, Cyclophosphamide, reference compound]
White blood cells (WBC)
  number of peripheral blood WBC, cyclophosphamide only: decline in the number of peripheral blood WBC
[2]; cyclophosphamide 50 mg/kg only
  number of peripheral blood leukocytes and neutrophils, cytotoxic drug only: decline in the number of peripheral blood leukocytes and neutrophils

## O=c1[nH]cc(F)c(=O)[nH]1 [5-FU, 5-fluoro-uracyl, reference compound]
[3]
  tumor growth (tumor size), combined therapy experiment: marked inhibition of tumor growth
[4]
  weight of the mice as compared to control: profound effect on the weight of the mice

## O=C(Cc1ccccc1)Nc1nc2ccc(Cl)cc2c2nc(-c3ccco3)nn12 [MRS-1220, 9-chloro-2-(2-furanyl)-5-[(phenylacetyl)amino] [1,2,4,]-triazolo[1,5-c]quinazoline]
Bone marrow cells; FIG. 3B
  reduction of the increase in bone marrow cell proliferation as compared to adenosine alone: about 50%
[1]
  effect of receptor antagonist on the effect of adenosine on proliferation of Nb2-11C cells: substantially abolished
[1]; FIGS. 7A–7B, tumor and normal cells
  therapeutic effect of A3RAg (IB-MECA) when A3 receptor antagonist employed: reversed

## CNC(=O)[C@H]1O[C@@H](n2cnc3c(NCc4cccc(I)c4)nc(Cl)nc32)[C@H](O)[C@@H]1O [Cl-IB-MECA]
[3]
  tumor growth (tumor size), combined therapy experiment: marked inhibition of tumor growth
[3]; Cl-IB-MECA 6 μg/kg oral every other day, FIG. 14
  tumor growth (tumor size): marked inhibition of tumor growth
[2]; mouse, in vivo
  white blood cells and neutrophils after chemotherapy, experiment with Cl-IB-MECA: chemoprotective activity
Bone marrow cells; 1 or 10 nM, FIG. 20
  effect on proliferation of bone marrow cells: dose dependent
Bone marrow cells; Cl-IB-MECA 0.01 μM or 0.1 μM, FIG. 18
  proliferation of bone marrow cells: proliferation stimulation effect
[4]; Cl-IB-MECA 6 μg/kg oral administered together with 5-FU 30 mg/kg i.p.
  5-FU-induced weight loss: prevented some of this weight loss
[4]
  weight of the mice as compared to control: did essentially not give rise to any weight loss
[5]; FIG. 12A
  number of peripheral white blood cells after doxorubicin: marked increase
[5]; FIG. 12B
  number of bone marrow nucleated cells after doxorubicin: marked increase
B-16 melanoma cells; Cl-IB-MECA 0.01 μM or 0.1 μM
  proliferation of B-16 melanoma cells: inhibitory effect
